Source: patent US20060058260A1, “Combination therapy with gemcitabine and zd6126” (priority 2002, published 2006)
Values joined by “and” are separate entries in the source; they are usually repeats but may differ in a detail not shown here. Equal values may be shown once. Where a name gives a salt, the structure may show the parent alone.

Columns and labels:
[1] = system: L3.6pl cells; assay: Primary pancreatic tumour growth and metastases growing orthotopically in nude mice; type: in vivo; conditions: gemcitabine 100 mg/kg i.p. twice weekly, ZD6126 75 mg/kg i.p. daily 5 days per week; for Liver Met: animals with liver metastases / animals in group; for Liver Met / LN Met / Peritoneal Carcinosis / Tumour Weight Average ± std dev: 25 days after tumour cell injection; for LN Met: animals with lymph node metastases / animals in group; for Incidence Pancreas: animals with pancreatic tumours / animals in group, sacrificed 25 days after tumour cell injection; for Peritoneal Carcinosis: animals with peritoneal carcinosis / animals in group; for Tumour Weight Average ± std dev: primary pancreatic tumour weight
Procedure: (§1) Model to Investigate Effects of ZD6126 and Gemcitabine Therapy on Primary Pancreatic Tumour Growth and Metastases Growing Orthotopically in Nude Mice Nude mice (n=8 to 10 per group) were treated 9 days after injection of 1×10^6 L3.6pl cells into the pancreas, with gemcitabine alone (100 mg/kg by intraperitoneal injection (i.p.) twice weekly on treatment days 2, 5, 9, 12), ZD6126 alone (75 mg/kg i.p. daily for 5 days per week on treatment days 1-5 and 8-12), or a combination of both agents ie gemcitabine (100 mg/kg i.p. twice weekly) and ZD6126 (75 mg/kg i.p. daily for 5 days per week). Thus the combination group received ZD6126 on treatment days 1-5 and 8-12 and gemcitabine on treatment days 2 and 5 and 9 and 12. On the days where both agents were given, gemcitabine was dosed at least 1 hour before ZD6126. A control group of 10 mice received intraperitoneal injections of an equivalent volume of saline according to the same treatment schedule as the combination group. The animals were sacrificed 25 days after tumour cell injection. The incidence of pancreatic tumours, liver metastases, lymph node metastases and peritoneal carcinosis was evaluated. The primary pancreatic tumour weight was measured. All macroscopically enlarged lymph nodes and liver nodules were confirmed by histopathology (H&E staining).

[2] = Body weight in the orthotopic pancreatic tumour model in nude mice; type: in vivo; conditions: 25 days after tumour cell injection; gemcitabine 100 mg/kg i.p. twice weekly, ZD6126 75 mg/kg i.p. daily 5 days per week
Procedure: as §1, with “Nude” for “Model to Investigate Effects of ZD6126 and Gemcitabine Therapy on Primary Pancreatic Tumour Growth and Metastases Growing Orthotopically in Nude Mice Nude”, “injection.” for “injection. The incidence of pancreatic tumours, liver metastases, lymph node metastases and peritoneal carcinosis was evaluated. The primary pancreatic tumour weight was measured. All macroscopically enlarged lymph nodes and liver nodules were confirmed by histopathology (H&E staining).”

Nc1ccn([C@@H]2O[C@H](CO)[C@@H](O)C2(F)F)c(=O)n1 [Gemcitabine, 2′-deoxy-2′,2′-difluorocytidine monohydrochloride (β-isomer)]
Liver Met [1]: 2/10
LN Met [1]: 10/10
Incidence Pancreas [1]: 10/10
Peritoneal Carcinosis [1]: 1/10
Tumour Weight Average ± std dev [1]: 687 ± 157 mg
Tumour Weight Average ± std dev ([1]; listed as gemcitabine): 687 mg
Body Weight Average ± std dev [2]: 19.1 ± 2.2 g

COc1cc2c(c(OC)c1OC)-c1ccc(OP(=O)(O)O)cc1[C@@H](NC(C)=O)CC2 [ZD6126, N-acetylcolchinol-O-phosphate]
Liver Met [1]: 1/8
LN Met [1]: 2/8
Incidence Pancreas [1]: 8/8
Peritoneal Carcinosis [1]: 0/8
Tumour Weight Average ± std dev [1]: 541 mg and 541 ± 201 mg
Body Weight Average ± std dev [2]: 18.5 ± 1.9 g
